In PubChem BioAssay AID200 (DTP/NCI, 2004):
Where “and” joins values, the source holds several entries; their conditions need not be identical. Equal entries are not always repeated. Toxic doses and inconclusive results are not listed. Where a SMILES comes first, the peptide text is derived from it.

System: B6C3F1 mice, B16 melanoma ip, median survival T/C
Assay: NCI In Vivo Anticancer Drug Screen. Data for tumor model B16 Melanoma (intraperitoneal) in B6C3F1 mice
Settings: endpoint: median survival time, higher = longer survival
Outline: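 Values are T/C ratios: the measurement in treated animals divided by that in vehicle-treated controls, using survival or tumor size in mice carrying transplantable tumors.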

[1] = dose: 1.56 mg/kg/injection, schedule: Q01DX009 (ip), vehicle: saline
[2] = dose: 12.5 mg/kg/injection, schedule: Q01DX009 (ip), vehicle: saline
[3] = dose: 12.5 mg/kg/injection, schedule: Q01DX009 (ip), vehicle: saline with Tween-80
[4] = dose: 25.0 mg/kg/injection, schedule: Q01DX009 (ip), vehicle: saline with Tween-80
[5] = dose: 50.0 mg/kg/injection, schedule: Q01DX009 (ip), vehicle: saline with Tween-80
[6] = dose: 100.0 mg/kg/injection, schedule: Q01DX009 (ip), vehicle: saline with Tween-80
[7] = dose: 200.0 mg/kg/injection, schedule: Q01DX009 (ip), vehicle: saline with Tween-80
[8] = dose: 6.25 mg/kg/injection, schedule: Q01DX009 (ip), vehicle: saline with Tween-80

## CCOc1ccc(-c2nc3ccc(-c4nc5ccc(N6CCN(C)CC6)cc5[nH]4)cc3[nH]2)cc1
[1]
  T/C: 113 % of control
dose: 3.12 mg/kg/injection, schedule: Q01DX009 (ip), vehicle: saline
  T/C: 114 % of control
dose: 6.25 mg/kg/injection, schedule: Q01DX009 (ip), vehicle: saline
  T/C: 110 % of control
[2]
  T/C: 110 % of control

## CCN(CC)CCCC(C)Nc1c2ccc(Cl)cc2nc2ccc(OC)cc12 (centres undefined)
dose: 3.75 mg/kg/injection, schedule: Q01DX009 (ip), vehicle: Klucel (hydroxypropylcellulose) (HPC)
  T/C: 102 % of control
dose: 7.5 mg/kg/injection, schedule: Q01DX009 (ip), vehicle: Klucel (hydroxypropylcellulose) (HPC)
  T/C: 98 % of control
dose: 15.0 mg/kg/injection, schedule: Q01DX009 (ip), vehicle: Klucel (hydroxypropylcellulose) (HPC)
  T/C: 109 % of control
dose: 30.0 mg/kg/injection, schedule: Q01DX009 (ip), vehicle: Klucel (hydroxypropylcellulose) (HPC)
  T/C: 121 % of control

## ClCC[Se](Cl)(Cl)c1ccccc1
dose: 1.5 mg/kg/injection, schedule: Q01DX009 (ip), vehicle: saline
  T/C: 102 % of control
[1]
  T/C: 113 % of control
dose: 3.0 mg/kg/injection, schedule: Q01DX009 (ip), vehicle: saline
  T/C: 116 % of control
dose: 6.0 mg/kg/injection, schedule: Q01DX009 (ip), vehicle: saline
  T/C: 108 % of control

## O=[N+]([O-])c1ccc(-n2[nH]nnc2=S)cc1
[3]
  T/C: 100 % of control and 101 % of control
[4]
  T/C: 101 % of control and 103 % of control
[5]
  T/C: 95 % of control
[6]
  T/C: 93 % of control and 100 % of control
[7]
  T/C: 88 % of control and 92 % of control

## CC(C)n1cnc2c(Cl)ncnc21
[4]
  T/C: 88 % of control
[5]
  T/C: 104 % of control
[6]
  T/C: 87 % of control

## COc1ccc2c(NCCCCCCNc3c4ccccc4nc4cc(OC)ccc34)c3ccccc3nc2c1
dose: 39.0 micrograms/kg/injection, schedule: Q01DX009 (ip), vehicle: lactic acid
  T/C: 108 % of control
dose: 78.0 micrograms/kg/injection, schedule: Q01DX009 (ip), vehicle: lactic acid
  T/C: 90 % of control

## Cc1ncc(CO)c(CO)c1O
dose: 50.0 mg/kg/injection, schedule: Q03HX009 (ip), vehicle: suspension in saline
  T/C: 106 % of control
dose: 100.0 mg/kg/injection, schedule: Q03HX009 (ip), vehicle: suspension in saline
  T/C: 102 % of control
dose: 200.0 mg/kg/injection, schedule: Q03HX009 (ip), vehicle: suspension in saline
  T/C: 102 % of control
dose: 400.0 mg/kg/injection, schedule: Q03HX009 (ip), vehicle: suspension in saline
  T/C: 98 % of control
dose: 800.0 mg/kg/injection, schedule: Q03HX009 (ip), vehicle: suspension in saline
  T/C: 96 % of control

## C=C1C(=O)C23[C@H](O)C1CC[C@H]2[C@]12COC3(O)[C@@H](O)[C@@H]1C(C)(C)CC[C@@H]2O
dose: 1.56 mg/kg/injection, schedule: Q01DX009 (ip), vehicle: saline with Tween-80
  T/C: 98 % of control
dose: 3.12 mg/kg/injection, schedule: Q01DX009 (ip), vehicle: saline with Tween-80
  T/C: 106 % of control
dose: 4.5 mg/kg/injection, schedule: Q01DX009 (ip), vehicle: Klucel (hydroxypropylcellulose) (HPC)
  T/C: 97 % of control
[8]
  T/C: 115 % of control
dose: 9.0 mg/kg/injection, schedule: Q01DX009 (ip), vehicle: Klucel (hydroxypropylcellulose) (HPC)
  T/C: 93 % of control
[3]
  T/C: 108 % of control
dose: 18.0 mg/kg/injection, schedule: Q01DX009 (ip), vehicle: Klucel (hydroxypropylcellulose) (HPC)
  T/C: 99 % of control
[4]
  T/C: 98 % of control

## C/C=C(\C)c1cc(=O)c2c(C)cc3c(c2o1)C(=O)c1c(O)c(C2CC(C)(N(C)C)C(O)C(C)O2)cc(C2CC(N(C)C)C(O)C(C)O2)c1C3=O (centres undefined)
dose: 31.25 micrograms/kg/injection, schedule: Q01DX009 (ip), vehicle: saline
  T/C: 111 % of control
dose: 62.5 micrograms/kg/injection, schedule: Q01DX009 (ip), vehicle: saline
  T/C: 114 % of control
dose: 156.25 micrograms/kg/injection, schedule: Q01DX009 (ip), vehicle: saline
  T/C: 176 % of control
dose: 1250.0 micrograms/kg/injection, schedule: Q01DX009 (ip), vehicle: saline
  T/C: 93 % of control

## O=C(O)CNC(=O)CNC(=O)C(Cc1cnc[nH]1)NC(=O)OCc1ccccc1 (centres undefined) (HELM PEPTIDE1{[O=C(OCc1ccccc1)[*:2]].[O=C(C(Cc1c[nH]cn1)N[*:1])[*:2]].G.G}$$$$V2.0)
[6]
  T/C: 89 % of control
[7]
  T/C: 91 % of control
dose: 400.0 mg/kg/injection, schedule: Q01DX009 (ip), vehicle: saline with Tween-80
  T/C: 97 % of control

## CC1=C(C)C(=O)O[C@@H]([C@](C)(O)[C@]2(O)CC[C@@]3(O)[C@@H]4C[C@H]5O[C@]56[C@@H](O)C=CC(=O)[C@]6(C)[C@H]4CC[C@]23C)C1
dose: 0.25 mg/kg/injection, schedule: Q01DX009 (ip), vehicle: saline + alcohol
  T/C: 122 % of control
dose: 0.25 mg/kg/injection, schedule: Q01DX009 (ip), vehicle: saline
  T/C: 107 % of control
dose: 0.5 mg/kg/injection, schedule: Q01DX009 (ip), vehicle: saline + alcohol
  T/C: 117 % of control
dose: 0.5 mg/kg/injection, schedule: Q01DX009 (ip), vehicle: saline
  T/C: 116 % of control
dose: 1.0 mg/kg/injection, schedule: Q01DX009 (ip), vehicle: saline + alcohol
  T/C: 122 % of control
dose: 1.0 mg/kg/injection, schedule: Q01DX009 (ip), vehicle: saline
  T/C: 115 % of control and 124 % of control
dose: 2.0 mg/kg/injection, schedule: Q01DX009 (ip), vehicle: saline
  T/C: 115 % of control
dose: 4.0 mg/kg/injection, schedule: Q01DX009 (ip), vehicle: saline + alcohol
  T/C: 150 % of control
dose: 16.0 mg/kg/injection, schedule: Q01DX009 (ip), vehicle: saline
  T/C: 152 % of control and 171 % of control
dose: 16.0 mg/kg/injection, schedule: Q01DX009 (ip), vehicle: suspension in saline
  T/C: 170 % of control

## COc1cc(/C=C/[N+](=O)[O-])cc(Br)c1OC
dose: 0.75 mg/kg/injection, schedule: Q01DX009 (ip), vehicle: saline with Tween-80
  T/C: 102 % of control
dose: 1.5 mg/kg/injection, schedule: Q01DX009 (ip), vehicle: saline with Tween-80
  T/C: 112 % of control
dose: 3.0 mg/kg/injection, schedule: Q01DX009 (ip), vehicle: saline with Tween-80
  T/C: 98 % of control
dose: 6.0 mg/kg/injection, schedule: Q01DX009 (ip), vehicle: saline with Tween-80
  T/C: 97 % of control
[8]
  T/C: 91 % of control
dose: 12.0 mg/kg/injection, schedule: Q01DX009 (ip), vehicle: saline with Tween-80
  T/C: 93 % of control

## CC1Nc2ccccc2NC1C (centres undefined)
[4]
  T/C: 108 % of control
[5]
  T/C: 98 % of control
[6]
  T/C: 96 % of control

## NC(CCC(=O)NC(CS)C(=O)NCC(=O)O)C(=O)O (centres undefined)
[2]
  T/C: 94 % of control
dose: 25.0 mg/kg/injection, schedule: Q01DX009 (ip), vehicle: saline
  T/C: 113 % of control and 86 % of control and 101 % of control
dose: 400.0 mg/kg/injection, schedule: Q01DX009 (ip), vehicle: saline
  T/C: 91 % of control and 104 % of control and 107 % of control

## BrC1c2cccc3cccc(c23)C1Br (centres undefined)
[3]
  T/C: 123 % of control
[5]
  T/C: 155 % of control

## CC(=O)CC(c1ccccc1)c1c(O)c2ccccc2oc1=O (centres undefined)
dose: 0.05 mg/kg/injection, schedule: Q01DX009 (ip), vehicle: Klucel (hydroxypropylcellulose) (HPC)
  T/C: 95 % of control
dose: 0.05 mg/kg/injection, schedule: Q01DX009 (ip), vehicle: saline with Tween-80
  T/C: 121 % of control and 106 % of control
dose: 0.1 mg/kg/injection, schedule: Q01DX009 (ip), vehicle: Klucel (hydroxypropylcellulose) (HPC)
  T/C: 104 % of control
dose: 0.1 mg/kg/injection, schedule: Q01DX009 (ip), vehicle: saline with Tween-80
  T/C: 91 % of control
dose: 0.2 mg/kg/injection, schedule: Q01DX009 (ip), vehicle: Klucel (hydroxypropylcellulose) (HPC)
  T/C: 93 % of control
dose: 0.2 mg/kg/injection, schedule: Q01DX009 (ip), vehicle: saline with Tween-80
  T/C: 124 % of control and 87 % of control
dose: 0.4 mg/kg/injection, schedule: Q01DX009 (ip), vehicle: Klucel (hydroxypropylcellulose) (HPC)
  T/C: 108 % of control
dose: 0.4 mg/kg/injection, schedule: Q01DX009 (ip), vehicle: saline with Tween-80
  T/C: 111 % of control
dose: 0.8 mg/kg/injection, schedule: Q01DX009 (ip), vehicle: Klucel (hydroxypropylcellulose) (HPC)
  T/C: 98 % of control
dose: 0.8 mg/kg/injection, schedule: Q01DX009 (ip), vehicle: saline with Tween-80
  T/C: 103 % of control

## Ic1ccc2c(c1)N(c1ccccc1)c1cc(N=c3ccc4nc5ccc(I)cc5n(-c5ccccc5)c-4c3)ccc1N2
dose: 100.0 mg/kg/injection, schedule: Q01DX009 (ip), vehicle: Klucel (hydroxypropylcellulose) (HPC)
  T/C: 91 % of control
dose: 200.0 mg/kg/injection, schedule: Q01DX009 (ip), vehicle: Klucel (hydroxypropylcellulose) (HPC)
  T/C: 94 % of control
dose: 400.0 mg/kg/injection, schedule: Q01DX009 (ip), vehicle: Klucel (hydroxypropylcellulose) (HPC)
  T/C: 91 % of control
